Experimental data: patent US20070155823A1, “USE OF BENZO-FUSED HETEROCYCLE SULFAMIDE DERIVATIVES AS NEUROPROTECTIVE AGENTS” (priority 2005, published 2007)
Where “and” joins values, the source holds several entries; their conditions need not be identical. Equal entries are not always repeated.

Tests used:
Rat Hippocampal Cultures = experiment: Cell Titer Glow/Cell Viability in vitro assay, rat hippocampal cultures, insult with 150 μM H2O2; assay type: cell-based; conditions: for Cell viability (Cell Titer Glow), single plate / Cell viability (Cell Titer Glow), Mean: rat hippocampal cultures, 150 μM H2O2 insult; for Cell viability (Cell Titer Glow), single plate: individual plates (each in triplicate), vehicle 0.5-0.6; for Cell viability (Cell Titer Glow), Mean: mean of 3 plates (n=9), vehicle mean 0.5
Protocol: (§1) Cell Titer Glow/Cell Viability In Vitro Assay
(§2) The assay was run according to the procedure listed within the insert of the kit purchased from Promega (see attachment at the end of the application).
(§3) Cell Cultures were prepared as follows. Dissociated hippocampal and cortical cell cultures were established from embryonic day 18 rat fetuses. The fetuses were removed via cesarean section from pregnant dams (Harlan Sprague-Dawley) anesthetized with halothane according to the AVMA Panel on Euthanasia. Pups were decapitated and the brains were removed and placed in Hank's Balanced Salt solution (1×HBSS; Gibco, Rockville, Md.). The hippocampi and cortices were dissected out and pooled according to tissue-type. Tissue was trypsinized for 15 min (1 mg/ml trypsin-HBSS; Worthington, Lakewood, N.J.), rinsed with fresh HBSS, incubated in trypsin inhibitor (1 mg/ml; Sigma, St. Louis, Mo.) for 5 min, rinsed again with fresh HBSS and then triturated in 1 ml fresh HBSS with a fire-polished glass pipette. Dissociated cells were seeded at 10,000 cells/well onto poly-D-lysine coated 96-well plates (BD BioScience, Bedford, Ma.) containing 100 ul/well Eagle's Minimal Essential Media (MEM; Gibco) supplemented with 26 mM NaHCO3 (Sigma), 40 mM glucose (Sigma), 20 mM KCl (Sigma), 1 mM sodium pyruvate (Sigma), 10% (v/v) heat-inactivated fetal bovine serum (Hyclone, Logan, Utah), and 0.001% gentamicin sulfate (Sigma) (pH 7.4). Serum-free cultures were plated and maintained in Neurobasal medium+B27 supplement (Gibco). Cells were allowed to attach for 24 h in a humidified 37° C. 5% CO2 incubator before experimental treatment.
(§4) Test compounds were prepared as follows: A 10 mM stock in DMSO of each compound was diluted 1:50 in DPBS rendering a final stock of 200 μM. […] Equal amounts of vehicle or diluted compound were added to each culture well.
(§5) A 30% stock solution of hydrogen peroxide (H2O2; Sigma) was diluted with DPBS 1:100 to yield a […] stock. Five microliters of vehicle or H2O2 stock solution was added to each 100 ul culture well to yield a final concentration of 150 uM.
(§6) Note that in the data listed below, each plate was run in triplicate for a total of n=9.

[1] = test system: Rat Cerebral Cortical Cultures; experiment: Cell Titer Glow/Cell Viability in vitro assay, rat cerebral cortical cultures, insult with 150 μM H2O2; assay type: cell-based; conditions: 150 μM H2O2 insult; for Cell viability (Cell Titer Glow), single plate: individual plates (each in triplicate), vehicle 0.8-1.2; for Cell viability (Cell Titer Glow), Mean: mean of 3 plates (n=9)
Protocol: as §1, §2, §3, §4, §5, §6

Row | melting point [°C] | Compound | Cell viability (Cell Titer Glow), single plate (Rat Hippocampal Cultures; compound 0.1 μM) | Cell viability (Cell Titer Glow), Mean (Rat Hippocampal Cultures; compound 0.1 μM, SD 1, **p < 0.01) | Cell viability (Cell Titer Glow), single plate (Rat Hippocampal Cultures; compound 1 μM) | Cell viability (Cell Titer Glow), Mean (Rat Hippocampal Cultures; compound 1 μM, SD 0.6) | Cell viability (Cell Titer Glow), single plate (Rat Hippocampal Cultures; compound 10 μM) | Cell viability (Cell Titer Glow), Mean (Rat Hippocampal Cultures; compound 10 μM, SD 3) | Protection of neurons from death and/or damage from oxidative stress or oxidative injury (Rat Hippocampal Cultures; summary in words of Tables 4 and 5 (rat hippocampal and cerebral cortical cultures, 150 μM H2O2)) | Cell viability (Cell Titer Glow), single plate ([1]; compound 0.1 μM) | Cell viability (Cell Titer Glow), Mean ([1]; compound 0.1 μM, SD 35, vehicle mean 1, *p < 0.05) | Cell viability (Cell Titer Glow), single plate ([1]; compound 1 μM) | Cell viability (Cell Titer Glow), Mean ([1]; compound 1 μM, SD 16, vehicle mean 1) | Cell viability (Cell Titer Glow), single plate ([1]; compound 10 μM) | Cell viability (Cell Titer Glow), Mean ([1]; compound 10 μM, SD 22, vehicle mean 1)
1 | 100 to 101 | NS(=O)(=O)NCC1CCc2ccccc2O1 (centres unmarked) [Compound #10, Chroman-2-ylmethylsulfamide] | – | – | – | – | – | – | – | – | – | – | – | – | –
2 | – | NS(=O)(=O)NC[C@H]1COc2cc(Cl)ccc2O1 [Compound #8, (2S)-(−)-N-(6-Chloro-2,3-dihydro-benzo[1,4]dioxin-2-ylmethyl)-sulfamide] | 24 (2×) and 26 | 25** | 16 and 17 (2×) | 17 | 10 and 14 and 15 | 13 | effective at protecting neurons from death and/or damage from oxidative stress or oxidative injury | 28 and 64 and 97 | 63* | 19 and 51 and 38 | 36 | 10 and 18 and 51 | 26
